Assay results published in US6737383B1, “Herbicidal oxadiazolidines” (priority 1999, dated 2004).

What was measured:
corn = test: Test B pre/postemergence corn; type: in vivo, Zea mays; conditions: for Corn plant response rating: scale of 0 to 10 where 0 is no effect and 10 is complete control
Outline: (§1)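 Herbicidal effect was estimated by eye on a ten-point control scale after plants spent twelve to sixteen days in a greenhouse following soil or foliar treatment. Foliar sprays targeted plants at one to four leaves; all doses were formulated in a non-phytotoxic solvent with surfactant.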

sugar beet = test: Test B pre/postemergence sugar beet; type: in vivo, Beta vulgaris; conditions: for Sugarbeets plant response rating: scale of 0 to 10 where 0 is no effect and 10 is complete control
Outline: as §1

wild oat = test: Test B pre/postemergence wild oat; type: in vivo, Avena fatua; conditions: for Wild oats plant response rating: scale of 0 to 10 where 0 is no effect and 10 is complete control
Outline: as §1

bedstraw = test: Test B pre/postemergence bedstraw; type: in vivo, Galium aparine; conditions: for Bedstraw plant response rating: scale of 0 to 10 where 0 is no effect and 10 is complete control
Outline: as §1

crabgrass = test: Test B pre/postemergence crabgrass; type: in vivo, Digitaria sanguinalis; conditions: for Crabgrass plant response rating: scale of 0 to 10 where 0 is no effect and 10 is complete control
Outline: as §1

purple nutsedge = test: Test B pre/postemergence purple nutsedge; type: in vivo, Cyperus rotundus; conditions: for Nutsedge plant response rating: scale of 0 to 10 where 0 is no effect and 10 is complete control
Outline: as §1

cocklebur = test: Test B pre/postemergence cocklebur; type: in vivo, Xanthium strumarium; conditions: for Cocklebur plant response rating: scale of 0 to 10 where 0 is no effect and 10 is complete control
Outline: as §1

wheat = test: Test B pre/postemergence wheat; type: in vivo, Triticum aestivum; conditions: for Wheat plant response rating: scale of 0 to 10 where 0 is no effect and 10 is complete control
Outline: as §1

rape = test: Test B pre/postemergence rape; type: in vivo, Brassica napus; conditions: for Rape plant response rating: scale of 0 to 10 where 0 is no effect and 10 is complete control
Outline: as §1

soybean = test: Test B pre/postemergence soybean; type: in vivo, Glycine max; conditions: for Soybean plant response rating: scale of 0 to 10 where 0 is no effect and 10 is complete control
Outline: as §1

blackgrass = test: Test B pre/postemergence blackgrass; type: in vivo, Alopecurus myosuroides; conditions: for Blackgrass plant response rating: scale of 0 to 10 where 0 is no effect and 10 is complete control
Outline: as §1

velvetleaf = test: Test B pre/postemergence velvetleaf; type: in vivo, Abutilon theophrasti; conditions: for Velvetleaf plant response rating: scale of 0 to 10 where 0 is no effect and 10 is complete control
Outline: as §1

surinam grass = test: Test B pre/postemergence surinam grass; type: in vivo, Brachiaria decumbens; conditions: for B. signalgrass plant response rating: scale of 0 to 10 where 0 is no effect and 10 is complete control
Outline: as §1

giant foxtail = test: Test B pre/postemergence giant foxtail; type: in vivo, Setaria faberii; conditions: for Giant foxtail plant response rating: scale of 0 to 10 where 0 is no effect and 10 is complete control
Outline: as §1

pigweed = test: Test B pre/postemergence pigweed; type: in vivo, Amaranthus retroflexus; conditions: for Redroot pigweed plant response rating: scale of 0 to 10 where 0 is no effect and 10 is complete control
Outline: as §1

morningglory = test: Test B pre/postemergence morningglory; type: in vivo, Ipomoea hederacea; conditions: for Morningglory plant response rating: scale of 0 to 10 where 0 is no effect and 10 is complete control
Outline: as §1

[1] = Postemergence, Rate 125 g/ha, scale 0 to 10, 0 is no effect, 10 is complete control
[2] = Postemergence, Rate 250 g/ha, scale 0 to 10, 0 is no effect, 10 is complete control
[3] = Preemergence, Rate 62 g/ha, scale 0 to 10 (0 no effect, 10 complete control)
[4] = Rate 500 g/ha, Postemergence, scale 0 to 10, 0 no effect, 10 complete control

CC(C)N(C(=O)n1oc(=O)n(C2(C)CC2)c1=O)c1ccc(Cl)cc1 [Compound 361]
1: Corn plant response rating (corn; Preemergence, Rate 250 g/ha) | Soybean plant response rating (soybean; Preemergence, Rate 500 g/ha) | Giant foxtail plant response rating (giant foxtail; Rate 62 g/ha, Postemergence) | Plant response rating, Redroot pigweed (pigweed; [3]) | Morningglory plant response rating (morningglory; Rate 62 g/ha, Postemergence)
5: Plant response rating, Sugarbeets (sugar beet; [1]) | Plant response rating, Sugarbeets (sugar beet; [2]) | Plant response rating, Crabgrass (crabgrass; [4]) | Rape plant response rating (0 to 10 scale) (rape; Preemergence, Rate 125 g/ha) | Rape plant response rating (rape; Preemergence, Rate 250 g/ha) | Plant response rating, Soybean (soybean; [2]) | Plant response rating, Soybean (soybean; [4]) | Blackgrass plant response rating (blackgrass; Rate 62 g/ha, Postemergence) | Velvetleaf plant response rating (velvetleaf; Preemergence, Rate 500 g/ha) | Plant response rating, Giant foxtail (giant foxtail; [2]) | Plant response rating, Giant foxtail (giant foxtail; [4]) | Plant response rating, Redroot pigweed (pigweed; [1])
4: Plant response rating, Rape (rape; [3]) | Plant response rating, Rape (rape; [4]) | Plant response rating, Soybean (soybean; [1]) | Velvetleaf plant response rating (velvetleaf; Preemergence, Rate 250 g/ha) | B. signalgrass plant response rating (0 to 10 scale, 0 is no effect, 10 is complete control) (surinam grass; Preemergence, Rate 125 g/ha) | B. signalgrass plant response rating (surinam grass; Preemergence, Rate 250 g/ha) | Plant response rating, B. signalgrass (surinam grass; [4]) | Plant response rating, Giant foxtail (giant foxtail; [1])
6: Corn plant response rating (corn; Preemergence, Rate 500 g/ha) | Sugarbeets plant response rating (sugar beet; Preemergence, Rate 250 g/ha) | Sugarbeets plant response rating (sugar beet; Preemergence, Rate 500 g/ha) | Plant response rating, Sugarbeets (sugar beet; [4]) | Plant response rating, Wild oats (wild oat; [2]) | Plant response rating, Wild oats (wild oat; [4]) | Wheat plant response rating (wheat; Preemergence, Rate 500 g/ha) | Rape plant response rating (rape; Preemergence, Rate 500 g/ha) | B. signalgrass plant response rating (surinam grass; Preemergence, Rate 500 g/ha) | Plant response rating, Redroot pigweed (pigweed; [2])
2: Sugarbeets plant response rating (0 to 10 scale) (sugar beet; Preemergence, Rate 125 g/ha) | Sugarbeets plant response rating (sugar beet; Rate 62 g/ha, Postemergence) | Plant response rating, Wild oats (wild oat; [1]) | Bedstraw plant response rating (bedstraw; Preemergence, Rate 500 g/ha) | Plant response rating, Crabgrass (crabgrass; [1]) | Plant response rating, Crabgrass (crabgrass; [2]) | Plant response rating, Crabgrass (crabgrass; [3]) | Plant response rating, Cocklebur (cocklebur; [4]) | Wheat plant response rating (wheat; Preemergence, Rate 250 g/ha) | Plant response rating, Wheat (wheat; [4]) | Rape plant response rating (rape; Rate 62 g/ha, Postemergence) | Soybean plant response rating (soybean; Rate 62 g/ha, Postemergence) | Plant response rating, Morningglory (morningglory; [1])
10: Wild oats plant response rating (wild oat; Preemergence, Rate 500 g/ha) | Blackgrass plant response rating (blackgrass; Preemergence, Rate 250 g/ha) | Blackgrass plant response rating (blackgrass; Preemergence, Rate 500 g/ha) | Giant foxtail plant response rating (giant foxtail; Preemergence, Rate 250 g/ha) | Giant foxtail plant response rating (giant foxtail; Preemergence, Rate 500 g/ha) | Redroot pigweed plant response rating (pigweed; Preemergence, Rate 500 g/ha)
7: Plant response rating, Wild oats (wild oat; [3]) | Plant response rating, Bedstraw (bedstraw; [1]) | Bedstraw plant response rating (bedstraw; Rate 62 g/ha, Postemergence) | Crabgrass plant response rating (0 to 10 scale) (crabgrass; Preemergence, Rate 125 g/ha) | Crabgrass plant response rating (crabgrass; Preemergence, Rate 250 g/ha) | Plant response rating, Blackgrass (blackgrass; [1]) | Plant response rating, Giant foxtail (giant foxtail; [3]) | Redroot pigweed plant response rating (0 to 10 scale) (pigweed; Preemergence, Rate 125 g/ha) | Plant response rating, Redroot pigweed (pigweed; [4]) | Plant response rating, Morningglory (morningglory; [2])
0: Plant response rating, Corn (corn; [1]) | Plant response rating, Corn (corn; [2]) | Plant response rating, Corn (corn; [3]) | Corn plant response rating (0 to 10 scale) (corn; Preemergence, Rate 125 g/ha) | Corn plant response rating (corn; Rate 62 g/ha, Postemergence) | Plant response rating, Corn (corn; [4]) | Plant response rating, Sugarbeets (sugar beet; [3]) | Wild oats plant response rating (wild oat; Rate 62 g/ha, Postemergence) | Plant response rating, Bedstraw (bedstraw; [3]) | Bedstraw plant response rating (0 to 10 scale) (bedstraw; Preemergence, Rate 125 g/ha) | Bedstraw plant response rating (bedstraw; Preemergence, Rate 250 g/ha) | Crabgrass plant response rating (crabgrass; Rate 62 g/ha, Postemergence) | Plant response rating, Nutsedge (purple nutsedge; [1]) | Plant response rating, Nutsedge (purple nutsedge; [2]) | Plant response rating, Nutsedge (purple nutsedge; [3]) | Nutsedge plant response rating (0 to 10 scale) (purple nutsedge; Preemergence, Rate 125 g/ha) | Nutsedge plant response rating (purple nutsedge; Preemergence, Rate 250 g/ha) | Nutsedge plant response rating (purple nutsedge; Preemergence, Rate 500 g/ha) | Nutsedge plant response rating (purple nutsedge; Rate 62 g/ha, Postemergence) | Plant response rating, Nutsedge (purple nutsedge; [4]) | Plant response rating, Cocklebur (cocklebur; [1]) | Plant response rating, Cocklebur (cocklebur; [2]) | Plant response rating, Cocklebur (cocklebur; [3]) | Cocklebur plant response rating (0 to 10 scale) (cocklebur; Preemergence, Rate 125 g/ha) | Cocklebur plant response rating (cocklebur; Preemergence, Rate 250 g/ha) | Cocklebur plant response rating (cocklebur; Preemergence, Rate 500 g/ha) | Cocklebur plant response rating (cocklebur; Rate 62 g/ha, Postemergence) | Plant response rating, Wheat (wheat; [1]) | Plant response rating, Wheat (wheat; [2]) | Plant response rating, Wheat (wheat; [3]) | Wheat plant response rating (0 to 10 scale) (wheat; Preemergence, Rate 125 g/ha) | Wheat plant response rating (wheat; Rate 62 g/ha, Postemergence) | Plant response rating, Soybean (soybean; [3]) | Soybean plant response rating (0 to 10 scale) (soybean; Preemergence, Rate 125 g/ha) | Soybean plant response rating (soybean; Preemergence, Rate 250 g/ha) | Plant response rating, Velvetleaf (velvetleaf; [1]) | Plant response rating, Velvetleaf (velvetleaf; [2]) | Plant response rating, Velvetleaf (velvetleaf; [3]) | Velvetleaf plant response rating (0 to 10 scale) (velvetleaf; Preemergence, Rate 125 g/ha) | Velvetleaf plant response rating (velvetleaf; Rate 62 g/ha, Postemergence) | Plant response rating, B. signalgrass (surinam grass; [1]) | B. signalgrass plant response rating (surinam grass; Rate 62 g/ha, Postemergence) | Plant response rating, Morningglory (morningglory; [3]) | Morningglory plant response rating (0 to 10 scale) (morningglory; Preemergence, Rate 125 g/ha) | Morningglory plant response rating (morningglory; Preemergence, Rate 250 g/ha) | Morningglory plant response rating (morningglory; Preemergence, Rate 500 g/ha)
8: Wild oats plant response rating (0 to 10 scale) (wild oat; Preemergence, Rate 125 g/ha) | Wild oats plant response rating (wild oat; Preemergence, Rate 250 g/ha) | Plant response rating, Bedstraw (bedstraw; [2]) | Plant response rating, Bedstraw (bedstraw; [4]) | Plant response rating, Blackgrass (blackgrass; [2]) | Blackgrass plant response rating (0 to 10 scale) (blackgrass; Preemergence, Rate 125 g/ha) | Plant response rating, Blackgrass (blackgrass; [4]) | Redroot pigweed plant response rating (pigweed; Preemergence, Rate 250 g/ha)
9: Crabgrass plant response rating (crabgrass; Preemergence, Rate 500 g/ha) | Giant foxtail plant response rating (0 to 10 scale) (giant foxtail; Preemergence, Rate 125 g/ha)
3: Plant response rating, Rape (rape; [1]) | Plant response rating, Rape (rape; [2]) | Plant response rating, Blackgrass (blackgrass; [3]) | Plant response rating, Velvetleaf (velvetleaf; [4]) | Plant response rating, B. signalgrass (surinam grass; [2]) | Plant response rating, B. signalgrass (surinam grass; [3]) | Redroot pigweed plant response rating (pigweed; Rate 62 g/ha, Postemergence)
